According to patent US20190269705A1, “METHODS AND MATERIALS FOR TREATING GRAFT VERSUS HOST DISEASE” (Regents of the University of Minnesota, priority 2017, published 2019):
“Also recorded” adds a separate entry of the source.

Legend:
naïve CD4+ T cells = test: Extracellular Acidification Rate on instantaneous T cell activation (Seahorse); format: cell-based, mouse; conditions: αCD3/CD28 injection in the presence of vehicle or CB839
Procedure: (§1) Experiments were carried out on Agilent Seahorse XF96 bioanalyzer (Agilent). Briefly, wild type CD4+ cells were isolated as previous and activated for 3 days on CD3/CD28 as previously described, or skewed to Th1 and Th17 subsets as described above. T cells were spun onto XF96 Cell-Tak (BD Bioscience, Cat #: 354240) coated plates and rested in Seahorse XF RPMI 1640 media supplemented with glutamine, sodium pyruvate, and glucose. For immediate metabolic response, CB839 and UK5099 were injected separately or in combination, and OCR and ECAR measured.
(§2) Experiments were carried out on Agilent Seahorse XF96 bioanalyzer (Agilent). Briefly, wild type CD4+ cells were isolated as previous and activated for 3 days on αCD3/CD28 coated plates as previously described, or skewed to Th1 and Th17 subsets as described above. T cells were isolated and spun onto XF96 Cell-Tak (BD Bioscience, Cat #: 354240) coated plates and rested in Seahorse XF RPMI 1640 media supplemented with glutamine, sodium pyruvate, and glucose. For immediate metabolic response, 1 μM CB839 and 5 μM UK5099 (Cat #: PZ0160-5MG) were injected separately or in combination, and OCR and ECAR measured. For activation response, 1 uM CB839 was injected into IL-7 maintained naïve CD4+ T cells in seahorse medium and allowed to incubate for 20 minutes, followed by soluble αCD3/CD28 injection.

Th1 cells = test: 3H-2-deoxyglucose uptake and ECAR, Th1; format: cell-based, mouse
Procedure: (§3) Glucose uptake assays were performed as described elsewhere (see, e.g., Macintyre et al., 2014 Cell Metab. 20(1):61-72). Naïve CD4+ T cells were differentiated into Th1 and Th17 cells, in triplicate, in the presence or absence of CB839 over 5 days and spun down after reisolation using CD4 kit as previously described. Cells were washed 2× in PBS, counted, then rested in 1 mL Kreb's Ringers HEPES (KRH) for 10 minutes. Cells were spun and resuspended to 5×10^5 cells/50 uL KRH for glucose uptake assay. Briefly, cells were […]. Cells incubated for 10 minutes at 37° C. Immediately after incubation, reaction was quenched with 200 μM phloretin (Calbiochem, Cat #: 524488). Cells were spun, washed, and then resuspended in scint fluid for counting on Beckman-Coulter scintillation counter. Pathway analysis of altered metabolites was performed using Metaboanalyst 3.0 (metaboanalyst. ca/faces/home.xhtml).
as §1
(§4) Glucose uptake assays were performed as previously described (Macintyre et al.,2014). Naïve CD4+ T cells were differentiated into Th1 and Th17 cells, in triplicate, in the presence or absence of CB839 over five days and spun down after reisolation using CD4 kit as previously described. At day 3 and 5, cells were removed, washed twice in PBS, counted, then rested in 1 mL Kreb's Ringers HEPES (KRH) for at least 10 minutes. Cells were spun and resuspended to 5×10^5 cells/50 μL KRH for glucose uptake assay. Briefly, 3H-2-deoxyglucose was suspended in KRH bubble layered in oil, and cells were added to this bubble. Cells were incubated for 10 minutes at 37° C. Immediately after incubation, reaction was quenched with 200 μM phloretin (Calbiochem, Cat #: 524488). Cells were spun, washed, and then resuspended in scintilation fluid for counting on Beckman-Coulter scintillation counter (3H, 1 min/sample read).
as §2

[1] = mouse, in vivo
[2] = system: hgp100-expressing vaccinia virus; conditions: mouse, in vivo
Treg cells = test: CD4 T cells in Treg skewing conditions, flow cytometry; conditions: 5 days, CB839 vs vehicle
Th17 cells [3] = test: Nutrient uptake and secretion by NMR; format: cell-based, mouse
stimulated CD4+ T cells = test: 13C-glucose tracing of stimulated CD4 T cells (LC-HRMS); format: cell-based, mouse; conditions: 1 μM CB839, 13C-glucose, 24 hours
Procedure: ^13C-Glucose Activation: CD4 cells were activated on 5 μg/mL αCD3/CD28 for 3 days. At day 3, cells were pooled, washed 3× in PBS, and re-stimulated in presence of 1 μM CB839 or Vehicle (DMSO) and 11 mM ^13C glucose (Cambridge Isotope Labs, Cat #: CLM-1396-1). Cells were incubated for 24 hours at 37° C., then scraped and combined in triplicate. Cells were rinsed with 0.9% saline and metabolites were extracted in methanol. Metabolites measured by LC-High-Resolution Mass Spectrometer (LC-HRMS) using a Q-exactive machine. The time-dependent glucose labeling pattern was modeled as with the following equation: […]
^13C Tracing. To measure 13C-Glucose tracing in T cell activation, CD4 cells were stimulated on 5 μg/mL anti-CD3/CD28 for 3 days. At day 3, cells were pooled, washed 3× in PBS, and re-stimulated in presence of 1 uM CB839 or Vehicle (DMSO) and 11 mM 13C glucose (Cambridge Isotope Labs, Cat #: CLM-1396-1). Cells were incubated for 24 hours at 37 °C, then scraped and combined in triplicate. Cells were rinsed with 0.9% saline and metabolites were extracted in methanol. Metabolites measured by LC High-Resolution Mass Spectrometer (LC-HRMS) using a Q-Exactive machine as previously described(Liberti et al., 2017). The time-dependent glucose labeling pattern was modeled as with the following equation: […]

Th17 cells [4] = test: 3H-2-deoxyglucose uptake and ECAR, Th17; format: cell-based, mouse
Procedure: as §3, §1, §4, §2

[5] = Th1, day 5, listed as GLS inhibitor
[6] = Th17, day 5, listed as GLS inhibitor

## O=C(Cc1cccc(OC(F)(F)F)c1)Nc1ccc(CCCCc2nnc(NC(=O)Cc3ccccn3)s2)nn1 [CB839]
naïve CD4+ T cells
  early events in T cell activation (ECAR): did not to be affected
Th1 cells; Th1, day 5
  glucose uptake: increased
  media acidification (ECAR, glycolytic flux): increased
Th1 cells; [5]
  glucose uptake: increased levels of glucose uptake and glycolytic flux
  media acidification (ECAR, glycolytic flux): increased levels of glucose uptake and glycolytic flux
Th1 cells; Th1, day three
  glucose uptake: reduced
[1]
  accumulation / persistence of transferred CD8 T cells: accumulated to greater numbers in vivo by day 7; also recorded: enhances T cell persistence
[2]
  time increased cell numbers persisted: greater than 5 weeks
Treg cells
  Treg differentiation: unchanged
Th17 cells [3]
  glutamine uptake and glutamate, pyruvate, and lactate secretion: reduced upon GLS inhibition
Stimulated CD4+ T cells
  N-carbamoyl-aspartate: decreased
  TCA intermediates fractional labeling with glucose-derived 13C: increased fractional labeling
  TCA intermediates overall abundance: reduced in overall abundance
  aspartate levels: decreased significantly
  glucose-derived 13C in glutamate and aspartate: increased in both glutamate and aspartate
  glutamate: decreased glutamate
  glycine abundance: unchanged
  glycolytic intermediates abundance: more abundant
  intracellular glutamine: increased intracellular glutamine
  lactate levels and 13C-labeling: unchanged
  pyruvate abundance: decreased
  serine and alanine abundance: also decreased
Th17 cells [4]; Th17, day 5
  glucose uptake: decreased
  media acidification (ECAR, glycolytic flux): decreased
Th17 cells [4]; [6]
  glucose uptake: remained impaired
  media acidification (ECAR, glycolytic flux): remained impaired
Th17 cells [4]; Th17, day three
  glucose uptake: reduced
